Measured values reported in patent publication US20060094645A1, “Method for defining and treating chemically-induced immune disorders using tumor necrosis factor (TFNalpha), interleukin-1 (lL-1), and interleulin-6R(lL-6R) antagonists” (priority 2004, published 2006).

Molecular target: T1, TNF (Homo sapiens, UniProt P01375)
T1 construct: endogenous in cells; host or cells: the patients' own TNF in vivo
Experiment: Case report: Arthritis and Vasculitis associated with silicone breast implants, anti-TNF treatment
Assay type: in vivo
Conditions: patient after implant removal; earlier treatment for over 20 years with corticosteroids and methotrexate

T1 sequence (P01375 77-233 limits assumed): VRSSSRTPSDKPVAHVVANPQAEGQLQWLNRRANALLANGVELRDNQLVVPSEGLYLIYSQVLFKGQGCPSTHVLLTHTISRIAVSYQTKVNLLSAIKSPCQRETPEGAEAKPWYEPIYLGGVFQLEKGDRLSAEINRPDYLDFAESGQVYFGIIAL

For `CN(Cc1cnc2nc(N)nc(N)c2n1)c1ccc(C(=O)N[C@@H](CCC(=O)O)C(=O)O)cc1` [methotrexate], the “outcome of Arthritis and Vasculitis associated with silicone breast implants” value was “without success”.
